From PubChem BioAssay AID248 (DTP/NCI, 2004)
Inconclusive results and toxic doses are left out. Rule as the data show it: active = T/C of 150% or more; inactive = T/C below 125%.

System: L1210 leukemia ip in BDF1 mice, survival T/C
Test: NCI In Vivo Anticancer Drug Screen. Data for tumor model L1210 Leukemia (intraperitoneal) in B6D2F1 (BDF1) mice
Settings: endpoint: mean survival time, higher = longer survival
Procedure, shortened: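 Ratio derived from survival: compound-dosed mice over vehicle-dosed mice, all bearing a transplantable tumor.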

[1] = dose: 50.0 mg/kg/injection, schedule: Q01DX009 (ip), vehicle: saline
[2] = dose: 100.0 mg/kg/injection, schedule: Q01DX009 (ip), vehicle: saline
[3] = dose: 100.0 mg/kg/injection, schedule: Q04DX003 (ip), vehicle: saline
[4] = dose: 200.0 mg/kg/injection, schedule: Q04DX003 (ip), vehicle: saline
[5] = dose: 400.0 mg/kg/injection, schedule: Q04DX003 (ip), vehicle: saline
[6] = dose: 100.0 mg/kg/injection, schedule: Q01DX009 (ip), vehicle: Klucel (hydroxypropylcellulose) (HPC)
[7] = dose: 200.0 mg/kg/injection, schedule: Q01DX009 (ip), vehicle: Klucel (hydroxypropylcellulose) (HPC)
[8] = dose: 400.0 mg/kg/injection, schedule: Q01DX009 (ip), vehicle: Klucel (hydroxypropylcellulose) (HPC)
[9] = dose: 50.0 mg/kg/injection, schedule: Q01DX009 (ip), vehicle: Klucel (hydroxypropylcellulose) (HPC)
[10] = dose: 100.0 mg/kg/injection, schedule: Q01DX001 (ip), vehicle: saline
[11] = dose: 200.0 mg/kg/injection, schedule: Q01DX001 (ip), vehicle: saline
[12] = dose: 200.0 mg/kg/injection, schedule: Q01DX009 (ip), vehicle: saline
[13] = dose: 100.0 mg/kg/injection, schedule: Q04DX003 (ip), vehicle: saline with Tween-80
[14] = dose: 200.0 mg/kg/injection, schedule: Q04DX003 (ip), vehicle: saline with Tween-80

Measured: T/C

CN(C=O)COCN(C)C=O
inactive: dose: 100.0 mg/kg/injection, schedule: Q01DX001 (ip), vehicle: other 98 % of control | dose: 100.0 mg/kg/injection, schedule: Q04DX003 (ip), vehicle: other 98 % of control | dose: 200.0 mg/kg/injection, schedule: Q01DX001 (ip), vehicle: other 97 % of control | dose: 200.0 mg/kg/injection, schedule: Q04DX003 (ip), vehicle: other 102 % of control | dose: 400.0 mg/kg/injection, schedule: Q01DX001 (ip), vehicle: other 97 % of control | dose: 400.0 mg/kg/injection, schedule: Q04DX003 (ip), vehicle: other 104 % of control

CC1(C)C2CCC1(CS(=O)(=O)O)C(=O)C2.[Ag] (centres undefined)
inactive: dose: 3.12 mg/kg/injection, schedule: Q01DX009 (ip), vehicle: saline with Tween-80 92 % of control | dose: 6.25 mg/kg/injection, schedule: Q01DX009 (ip), vehicle: saline with Tween-80 87 % of control | dose: 12.5 mg/kg/injection, schedule: Q01DX009 (ip), vehicle: saline with Tween-80 90 % of control

CCCCCCC(Cl)CCl (centres undefined)
inactive: [1] 97 % of control | [2] 110 % of control | [3] 103 % of control | [4] 115 % of control | [5] 108 % of control

C=CCNC(=S)Nc1cccc(C(F)(F)F)c1
inactive: dose: 50.0 mg/kg/injection, schedule: Q01DX001 (sc), vehicle: carboxymethylcellulose (CMC) 104 % of control | dose: 100.0 mg/kg/injection, schedule: Q01DX001 (sc), vehicle: carboxymethylcellulose (CMC) 101 % of control | dose: 200.0 mg/kg/injection, schedule: Q01DX001 (sc), vehicle: carboxymethylcellulose (CMC) 104 % of control | dose: 400.0 mg/kg/injection, schedule: Q01DX001 (sc), vehicle: carboxymethylcellulose (CMC) 114 % of control

NS(=O)(=O)c1ccc(NC(=O)Nc2cc(C(F)(F)F)ccc2Cl)cc1
inactive: [6] 95 % of control | [7] 100 % of control | [8] 98 % of control

Cc1ccc(OC/C=C/CSc2ccc(Br)cc2)cc1
inactive: [9] 103 % of control | dose: 75.0 mg/kg/injection, schedule: Q01DX001 (ip), vehicle: Klucel (hydroxypropylcellulose) (HPC) 106 % of control | [6] 100 % of control | dose: 150.0 mg/kg/injection, schedule: Q01DX001 (ip), vehicle: Klucel (hydroxypropylcellulose) (HPC) 104 % of control | [7] 102 % of control | dose: 300.0 mg/kg/injection, schedule: Q01DX001 (ip), vehicle: Klucel (hydroxypropylcellulose) (HPC) 98 % of control

CCOC(=O)C1=C(C)CC(=O)NC1=O
inactive: [10] 115 % of control | [3] 108 % of control | [11] 114 % of control | [4] 90 % of control | dose: 400.0 mg/kg/injection, schedule: Q01DX001 (ip), vehicle: saline 111 % of control | [5] 90 % of control

CCCCCCCCCCOc1ccc(C2=C(c3ccccc3)C(=O)C(c3ccccc3)=C2c2ccccc2)cc1
inactive: dose: 100.0 mg/kg/injection, schedule: Q01DX001 (ip), vehicle: carboxymethylcellulose (CMC) 100 % of control | dose: 200.0 mg/kg/injection, schedule: Q01DX001 (ip), vehicle: carboxymethylcellulose (CMC) 105 % of control | dose: 400.0 mg/kg/injection, schedule: Q01DX001 (ip), vehicle: carboxymethylcellulose (CMC) 94 % of control

COc1cccc[n+]1[O-]
inactive: [1] 94 % of control | [2] 101 % of control | [3] 96 % of control | [12] 89 % of control | [4] 92 % of control

CCN=C(c1ccc(NC(=O)c2ccc(C(=O)Nc3ccc(C(=NCC)N(CC)C(=O)Nc4ccc(OCC)cc4)cc3)cc2)cc1)N(CC)C(=O)Nc1ccc(OCC)cc1
inactive: dose: 3.75 mg/kg/injection, schedule: Q01DX015 (ip), vehicle: methylcellulose (MC) 122 % of control
active: dose: 7.5 mg/kg/injection, schedule: Q01DX015 (ip), vehicle: methylcellulose (MC) 150 % of control

CCCCOC(=O)NCCSC(=O)OCCCC
inactive: [13] 101 % of control | [14] 93 % of control | dose: 400.0 mg/kg/injection, schedule: Q04DX003 (ip), vehicle: saline with Tween-80 95 % of control

CC(C)=CC(=O)c1ccccc1
inactive: dose: 100.0 mg/kg/injection, schedule: Q01DX001 (ip), vehicle: acetone 100 % of control | dose: 200.0 mg/kg/injection, schedule: Q01DX001 (ip), vehicle: acetone 94 % of control | dose: 400.0 mg/kg/injection, schedule: Q01DX001 (ip), vehicle: acetone 103 % of control

CCOCCCCO
inactive: [2] 96 % of control | [12] 92 % of control | dose: 400.0 mg/kg/injection, schedule: Q01DX009 (ip), vehicle: saline 94 % of control

C[CH2][Pb]([CH2]C)([CH2]C)[O]C(=O)C=C1CCCC1
inactive: dose: 2.5 mg/kg/injection, schedule: Q01DX009 (ip), vehicle: saline with Tween-80 101 % of control

O=C(Nc1cccc(C(=O)O)c1)Nc1ccccc1F
inactive: [9] 93 % of control | [6] 107 % of control | [7] 93 % of control

Cc1cccc(NC(=O)C(C)(C)C)c1C
inactive: [6] 106 % of control | [7] 95 % of control | [8] 101 % of control

c1ccc(CCC[P+](c2ccccc2)(c2ccccc2)c2ccccc2)cc1
inactive: dose: 2.5 mg/kg/injection, schedule: Q01DX009 (ip), vehicle: saline 113 % of control | dose: 5.0 mg/kg/injection, schedule: Q01DX001 (ip), vehicle: saline 101 % of control | dose: 5.0 mg/kg/injection, schedule: Q01DX009 (ip), vehicle: saline 118 % of control | dose: 10.0 mg/kg/injection, schedule: Q01DX001 (ip), vehicle: saline 95 % of control | dose: 10.0 mg/kg/injection, schedule: Q01DX009 (ip), vehicle: saline 102 % of control | dose: 20.0 mg/kg/injection, schedule: Q01DX001 (ip), vehicle: saline 117 % of control | dose: 40.0 mg/kg/injection, schedule: Q01DX001 (ip), vehicle: saline 117 % of control

CSc1ccc2c(c1)-c1ccccc1C2=O
inactive: dose: 100.0 mg/kg/injection, schedule: Q04DX003 (ip), vehicle: acetone 94 % of control | dose: 200.0 mg/kg/injection, schedule: Q04DX003 (ip), vehicle: acetone 89 % of control | dose: 400.0 mg/kg/injection, schedule: Q04DX003 (ip), vehicle: acetone 93 % of control

O[Si](O)([O][Sn]([c]1ccccc1)([c]1ccccc1)[c]1ccccc1)[O][Sn]([c]1ccccc1)([c]1ccccc1)[c]1ccccc1
inactive: dose: 25.0 mg/kg/injection, schedule: Q01DX009 (ip), vehicle: saline with Tween-80 106 % of control | [1] 96 % of control

CC#CC1(O)CCC2C3CC(C)C4CC(=O)CCC4(C)C3CCC21C (centres undefined)
inactive: dose: 146.0 mg/kg/injection, schedule: Q01DX Z (sc), vehicle: steriod suspending solution 108 % of control | dose: 222.0 mg/kg/injection, schedule: Q01DX Z (sc), vehicle: steriod suspending solution 112 % of control | dose: 333.0 mg/kg/injection, schedule: Q01DX Z (sc), vehicle: steriod suspending solution 112 % of control | dose: 500.0 mg/kg/injection, schedule: Q01DX Z (sc), vehicle: steriod suspending solution 106 % of control

CC(=O)OCCCC/C(=C/c1cc2ccccc2c2ccccc12)[N+](=O)[O-]
inactive: dose: 100.0 mg/kg/injection, schedule: Q01DX009 (ip), vehicle: carboxymethylcellulose (CMC) 100 % of control | dose: 266.0 mg/kg/injection, schedule: Q01DX009 (ip), vehicle: carboxymethylcellulose (CMC) 104 % of control | dose: 400.0 mg/kg/injection, schedule: Q01DX009 (ip), vehicle: carboxymethylcellulose (CMC) 104 % of control | dose: 600.0 mg/kg/injection, schedule: Q01DX009 (ip), vehicle: carboxymethylcellulose (CMC) 100 % of control

O=C(CCl)NC(=O)CCl
inactive: dose: 15.6 mg/kg/injection, schedule: Q01DX010 (ip), vehicle: other 97 % of control | dose: 31.3 mg/kg/injection, schedule: Q01DX009 (ip), vehicle: other 90 % of control | dose: 62.5 mg/kg/injection, schedule: Q01DX009 (ip), vehicle: other 92 % of control | [10] 103 % of control | [13] 103 % of control | dose: 125.0 mg/kg/injection, schedule: Q01DX010 (ip), vehicle: other 95 % of control | [11] 100 % of control | [14] 93 % of control

CCCCN1C(=O)C2C3CCC(O3)C2C1=O (centres undefined)
inactive: dose: 100.0 mg/kg/injection, schedule: Q04DX002 (ip), vehicle: Klucel (hydroxypropylcellulose) (HPC) 98 % of control | dose: 200.0 mg/kg/injection, schedule: Q04DX002 (ip), vehicle: Klucel (hydroxypropylcellulose) (HPC) 103 % of control
